Reference: paper PMC6522510 (Nature Communications, 2019)

What was measured:
ML-2 = assay: cells; set-up: species or system AML cell lines (8); Secondary HTS, 10-point dose-response in triplicate, Cell Titer Glo viability, four-parameter fit EC50; conditions: Homo sapiens, ML-2, 72 h, read-out: ML-2
CMK [1] = assay: cells; set-up: species or system AML cell lines (8); Secondary HTS, 10-point dose-response in triplicate, Cell Titer Glo viability, four-parameter fit EC50; conditions: Homo sapiens, CMK, 72 h, read-out: CMK
MV4-11 [2] = assay: cells; set-up: species or system AML cell lines (8); Secondary HTS, 10-point dose-response in triplicate, Cell Titer Glo viability, four-parameter fit EC50; conditions: Homo sapiens, MV4-11, 72 h, read-out: MV4-11
U937 [3] = assay: cells; set-up: species or system AML cell lines (8); Secondary HTS, 10-point dose-response in triplicate, Cell Titer Glo viability, four-parameter fit EC50; conditions: Homo sapiens, U-937, 72 h, read-out: U937
MOLM-13 [4] = assay: cells; set-up: species or system AML cell lines (8); Secondary HTS, 10-point dose-response in triplicate, Cell Titer Glo viability, four-parameter fit EC50; conditions: Homo sapiens, MOLM-13, 72 h, read-out: MOLM-13
CHRF288-11 [5] = assay: cells; set-up: species or system AML cell lines (8); Secondary HTS, 10-point dose-response in triplicate, Cell Titer Glo viability, four-parameter fit EC50; conditions: 72 h, read-out: CHRF288-11
M07e = assay: cells; set-up: species or system AML cell lines (8); Secondary HTS, 10-point dose-response in triplicate, Cell Titer Glo viability, four-parameter fit EC50; conditions: M-07e, 72 h, read-out: M07e
CMS = assay: cells; set-up: species or system AML cell lines (8); Secondary HTS, 10-point dose-response in triplicate, Cell Titer Glo viability, four-parameter fit EC50; conditions: 72 h, read-out: CMS
CMK [6] = assay: Secondary dose-response HTS, Cell Titer Glo; format: cell-based, human; conditions: Homo sapiens, CMK, read-out: average effective concentration, CMK
U937 [7] = assay: Secondary dose-response HTS, Cell Titer Glo; format: cell-based, human; conditions: Homo sapiens
MOLM-13 [8] = assay: Secondary dose-response HTS, Cell Titer Glo; format: cell-based, human; conditions: Homo sapiens; secondary high-throughput screen; MOLM-13; read-out: average effective concentration, MOLM-13
MV4-11 [9] = assay: Secondary dose-response HTS, Cell Titer Glo; format: cell-based, human; conditions: Homo sapiens; secondary high-throughput screen; MV4-11; read-out: average effective concentration, MV4-11
CHRF288-11 [10] = assay: Secondary dose-response HTS, Cell Titer Glo; format: cell-based, human; conditions: Homo sapiens, HTS; secondary high-throughput screen; CHRF288-11; read-out: average effective concentration, CHRF288-11
[11] = secondary high-throughput screen
[12] = U-937, secondary high-throughput screen, U937, read-out: average effective concentration, U937

Row | Compound | EC50 (ML-2) [µM] | EC50 (CMK [1]) [µM] | EC50 (MV4-11 [2]) [µM] | EC50 (U937 [3]) [µM] | EC50 (MOLM-13 [4]) [µM] | EC50 (CHRF288-11 [5]) [µM] | EC50 (M07e) [µM] | EC50 (CMS) [µM] | EC50 (CMK [6]; [11]) [µM] | EC50 (U937 [7]; [12]) [µM] | EC50 (MOLM-13 [8]) [µM] | EC50 (MV4-11 [9]) [µM] | EC50 (CHRF288-11 [10]) [µM] | EC50 (U937 [7]; U-937, read-out: average effective concentration, U937) [µM] | EC50 (CMK [6]) [µM]
1 | OC[C@H]1NC[C@H](O)[C@@H](O)[C@H]1O | > 10 | > 10 | > 10 | > 10 | > 10 | > 10 | > 10 | > 10 |  |  |  |  |  |  | 
2 | CC1=C(CC(=O)O)c2cc(F)ccc2/C1=C\c1ccc([S+](C)[O-])cc1 (stereo not shown) | > 10 | > 10 | > 10 | > 10 | > 10 | > 10 | > 10 | > 10 |  |  |  |  |  |  | 
3 | N[C@@H]1C[C@H]1c1ccccc1 (racemic) [SJ000286124, TRANYLCYPROMINE] | > 10 |  | > 10 | > 10 | > 10 | > 10 | > 10 | > 10 |  |  |  |  |  |  | 
4 | C=C1C(=O)O[C@@H](CCC)[C@@H]1C(=O)O (racemic) [SJ000784258, BUTYROLACTONE 3] | > 10 | > 10 | > 10 | > 10 | 1.8 | > 10 | > 10 | > 10 |  |  |  |  |  |  | 
5 | CC(=O)O[C@H]1CC[C@@]2(C)C(=CC[C@@H]3[C@@H]2CC[C@]2(C)C(c4cccnc4)=CC[C@@H]32)C1 [ABIRATERONE ACETATE] | > 10 |  | > 10 | > 10 | > 10 | > 10 | > 10 | > 10 | 5.3 |  |  |  |  |  | 
6 | CC(C)c1c(C(=O)Nc2ccccc2)c(-c2ccccc2)c(-c2ccc(F)cc2)n1CC[C@@H](O)C[C@@H](O)CC(=O)O [ATORVASTATIN] | > 10 | > 10 |  |  |  |  | > 10 | > 10 |  | > 10 | > 10 | > 10 | > 10 |  | 
7 | C=C(c1ccc(C(=O)O)cc1)c1cc2c(cc1C)C(C)(C)CCC2(C)C [BEXAROTENE] | > 10 |  |  | > 10 | > 10 | > 10 | > 10 | > 10 | 8.1 |  |  | 2.1 |  |  | 
8 | COc1cc2nccc(Oc3ccc(NC(=O)C4(C(=O)Nc5ccc(F)cc5)CC4)cc3)c2cc1OC [CABOZANTINIB] | > 10 |  |  | > 10 |  | > 10 | > 10 | > 10 | 7.3 |  | 0.05 | 0.001 |  |  | 
9 | Cn1c(=O)n(-c2ccc(C(C)(C)C#N)cc2)c2c3cc(-c4cnc5ccccc5c4)ccc3ncc21 [DACTOLISIB] | > 10 |  | > 10 | > 10 | > 10 | > 10 | > 10 | > 10 | 0.066 |  |  |  |  |  | 
10 | Cc1nc(C(=O)NCC(=O)O)c(O)c2ccc(Oc3ccccc3)cc12 [FG-4592] | > 10 | > 10 | > 10 | > 10 |  | > 10 | > 10 | > 10 |  |  | 0.002 |  |  |  | 
11 | CCC(C)n1ncn(-c2ccc(N3CCN(c4ccc(OCC5COC(Cn6cncn6)(c6ccc(Cl)cc6Cl)O5)cc4)CC3)cc2)c1=O (stereo not shown) [ITRACONAZOLE] | > 10 |  | > 10 | > 10 | > 10 | > 10 | > 10 | > 10 | 6.4 |  |  |  |  |  | 
12 | CC[C@H](C)C(=O)O[C@H]1C[C@@H](C)C=C2C=C[C@H](C)[C@H](CC[C@@H]3C[C@@H](O)CC(=O)O3)[C@H]21 [LOVASTATIN] | > 10 | > 10 | > 10 | > 10 |  |  | > 10 | > 10 |  |  | > 10 |  | 6.3 |  | 
13 | Cc1ccc(NC(=O)c2ccc(CN3CCN(C)CC3)cc2)cc1Nc1nc(-c2cccnc2)cs1 [MASITINIB] | > 10 | > 10 |  |  | > 10 | > 10 | > 10 | > 10 |  | > 10 |  | > 10 |  |  | 
14 | CC[C@H](C)C(=O)O[C@H]1CCC=C2C=C[C@H](C)[C@H](CC[C@@H]3C[C@@H](O)CC(=O)O3)[C@H]21 [MEVASTATIN] | > 10 | > 10 | > 10 | > 10 |  |  | > 10 | > 10 |  |  | 8.9 |  | 6.6 |  | 
15 | Cc1ncc(CNC(=O)N(CCCl)N=O)c(N)n1 [NIMUSTINE] | > 10 |  | > 10 | > 10 | > 10 | > 10 | > 10 | > 10 | 10 |  |  |  |  |  | 
16 | CCc1nc(N)nc(N)c1-c1ccc(Cl)cc1 [PYRIMETHAMINE] | > 10 | > 10 |  | > 10 |  | > 10 | > 10 | > 10 |  |  | 4.5 | > 10 |  |  | 
17 | CC(=O)c1c(C)c2cnc(Nc3ccc(N4CCNCC4)cn3)nc2n(C2CCCC2)c1=O [Palbociclib] | > 10 |  | > 10 |  | > 10 | > 10 | > 10 |  |  |  |  |  |  |  | 
18 | CS(=O)(=O)N1CCN(Cc2cc3nc(-c4cccc5[nH]ncc45)nc(N4CCOCC4)c3s2)CC1 [Pictilisib] | > 10 |  | > 10 | > 10 | > 10 | > 10 | > 10 | > 10 |  |  |  |  |  |  | 
19 | CNC(=O)c1cc(Oc2ccc(NC(=O)Nc3ccc(Cl)c(C(F)(F)F)c3)c(F)c2)ccn1 [REGORAFENIB] | > 10 | > 10 |  | > 10 |  | > 10 | > 10 | > 10 |  |  | 1.5 | 0.34 |  |  | 
20 | Oc1ccc(/C=C/c2cc(O)cc(O)c2)cc1 [RESVERATROL] | > 10 | > 10 |  | > 10 |  | > 10 | > 10 | > 10 |  |  | 8.9 | > 10 |  |  | 
21 | CC(C(=O)Nc1cccc(/N=C/c2c(O)ccc3ccccc23)c1)c1ccccc1 (stereo not shown) [SALERMIDE] | > 10 | > 10 | > 10 |  |  | > 10 | > 10 | > 10 |  | 6.6 | 7 |  |  |  | 
22 | Nc1ncnc2c1ncn2[C@@H]1C=C(CO)[C@@H](O)[C@H]1O [SJ000784248, NEPLANOCIN A] | 5.8 |  | > 10 | 1.1 | 0.36 | 6.5 | > 10 | > 10 |  |  |  |  |  |  | 
23 | N[C@@H]1C[C@H]1c1cc(F)cc(F)c1OCc1ccccc1 [SJ000785902, S2101] | > 10 |  | > 10 | > 10 | > 10 | > 10 | > 10 | > 10 |  |  |  |  |  |  | 
24 | Nc1nccc2c1ncn2[C@@H]1C=C(CO)[C@@H](O)[C@H]1O [SJ000785904, 3-DEAZANEPLANOCIN] | > 10 |  | > 10 | > 10 | 0.19 | 1.8 | 0.001 | > 10 |  |  |  |  |  |  | 
25 | Cn1cncc1[C@@](N)(c1ccc(Cl)cc1)c1ccc2c(c1)c(-c1cccc(Cl)c1)cc(=O)n2C [TIPIFARNIB] | > 10 |  | > 10 |  | > 10 | > 10 | > 10 | > 10 |  |  |  |  |  | 0.54 | 1.4
26 | CCCC(CCC)C(=O)O [VALPROATE SODIUM] | > 10 | > 10 | > 10 | > 10 |  | > 10 | > 10 | > 10 |  |  | 0.077 |  |  |  | 
27 | COc1cc2c(Nc3ccc(Br)cc3F)ncnc2cc1OCC1CCN(C)CC1 [VANDETANIB] | > 10 |  | > 10 | > 10 |  | > 10 | > 10 | > 10 |  |  | 10 |  |  |  | 5.8
